Reference: US5212157A, “Enzyme inhibitors” (Bio-Mega, Inc., priority 1989, dated 1993)
Counter-ions that a name gives are not always drawn. Numbered stars: 1 amine (or outer) side, 2 acyl side, 3 side chain; on linkers, the order of the positions; unused ones are H or OH. Square brackets hold non-standard residues; d marks the D form. Peptide text beside a SMILES is read from it. Ahppa(3S,4S) = O=C(C[C@H](O)[C@H](Cc1ccccc1)N[*:1])[*:2]; ACHPA = O=C(C[C@H](O)[C@H](CC1CCCCC1)N[*:1])[*:2]; Tic = O=C(O)[C@@H]1Cc2ccccc2CN1

Biological target: T1, HIV protease (Human immunodeficiency virus type 1 group M subtype B, UniProt P04585)
T1 construct: HIV protease was expressed in E. coli and purified to ca. 50% purity; made in house; host or cells: E. coli
Test: Recombinant HIV Protease HPLC Assay
Format: biochemical
Conditions: recombinant HIV protease expressed in E. coli; substrate VSFNFPQITL-NH2; pH 6 buffer; 37° C. for 1 h; HPLC quantification
From the text: The procedure is based on the capacity of the test compound to inhibit enzymatic cleavage by HIV protease of a decapeptide (the substrate) having an amino acid sequence which includes a known HIV protease cleavage site of the HIV polyprotein; see H. G. Krausslich et al., Proc. Natl. Acad. Sci. USA, 86, 807 (1989). Details of this assay together with the results obtained for exemplified peptides of formula 1 are described in the examples hereinafter.
Recombinant HIV Protease HPLC Assay
Enzyme: HIV protease was expressed in E. coli and purified to ca. 50% purity according to the procedure described by H.-G. Krausslich et al., Proc. Natl. Acad. Sci. U.S.A., 86, 807 (1989). The enzyme was stored as 10 μL aliquots at -70° C. The aliquots were diluted to 1/10th of the original concentration with buffer prior to use (enzyme working solution).
Substrate: VSFNFPQITL-NH2, MW 1164, see Krausslich et al., supra, was used as substrate. The substrate was made into 10 mM stock in DMSO and stored at -20° C. Prior to use, the stock was diluted with buffer to give a 400 μM solution substrate working solution.
Buffer: 2-(4-Morpholino)ethanesulfonic acid (50 mM), NaCl (25 mM) and EDTA (5 mM) was dissolved in distilled H2 O (90 mL) and the solution was adjusted to pH6 with concentrated aqueous NaOH. The latter solution was diluted to 100 mL with H2 O to give the buffer.
Procedure: (1) The test compound was dissolved in DMSO to give a solution having 40× the final concentration of the test compound in the assay mixture (see step 2) so that the amount of DMSO in the assay mixture was 5% (v,v) or less. (2) The assay mixture was prepared by mixing 10 μL of the substrate working solution, 0.5 μL of the solution of the test compound in DMSO from step 1, and 10 μL of the enzyme working solution. (3) The assay mixture was incubated at 37° C. for 1h. (4) The reaction was quenched by adding 100 μL of 2% aqueous TFA. (5) The substrate and products (i.e. VSFNF and PQITL-NH2) were separated by subjecting 100 μL of the quenched assay mixture to HPLC using Nucleosil ® C18 column with a 26-min linear gradient at 1 mL/min from 11% to 70% acetonitrile in H2 O with 0.05% aqueous TFA. Elution was monitored at 210 nm. (6) A control which was the assay mixture without the test compound, was subjected simultaneously to steps 3 to 5.
Inhibition Studies: Cleavage products and remaining parent substrate were quantified by either peak height or by integration of the appropriate HPLC peaks. Substrate conversion was calculated using the following relationship: [formula] Enzyme inhibition of the test compound was calculated as follows: [formula]
The concentration of the test compound which causes a 50% inhibition of the HIV-protease, i.e. the IC50, was determined as follows: The percent inhibition of the enzyme was determined for a minimum of three different concentrations of the test compound. Thereafter, the IC50 was determined graphically by plotting the percent inhibition of the substrate against the concentration of the test compound.

Molecule	IC50
CC(C)C[C@H](NC(=O)C[C@H](O)[C@H](CC1CCCCC1)NC(=O)[C@H](C)NC(=O)[C@@H]1Cc2ccccc2CN1)C(=O)N[C@@H](Cc1ccccc1)C(=O)O [Example 14, THIQ-Ala-ACHPA-Leu-Phe-OH.HCl] (H-[Tic]A[ACHPA]LF-OH)	200 nM
CC(C)C[C@H](NC(=O)C[C@H](O)[C@H](Cc1ccccc1)NC(=O)[C@@H](NC(=O)[C@@H]1Cc2ccccc2CN1)C(C)C)C(=O)N[C@@H](Cc1ccccc1)C(N)=O [Example 16, THIQ-Val-AHPPA-Leu-Phe-NH2.HCl] (H-[Tic]V[Ahppa(3S,4S)]LF-NH2)	25 nM
N-[N-[N-[N-[3-(1,2,3,4-Tetrahydroisoquinolyl)carbonyl]-L-alanyl]-4(S)-amino-3(S)-hydroxy-5-cyclohexylpentanoyl]-L-leucyl]-L-phenylalaninamide Hydrochloride [Example 1]	90 nM
THIQ-Val-ACHPA-Ala-Phe-NH2.HCl [Example 7]	17 nM
THIQ-Val-Cha.psi.[CH2 NH]Leu-Leu-Phe-NH2.HCl [Example 20]	80 nM
